From patent US20230000842A1, “METHODS OF TREATING CARTILAGE DISORDERS THROUGH INHIBITION OF CLK AND DYRK” (SAMUMED, LLC, priority 2019, published 2023)

Experiments:
[1] = system: Wnt pathway activity (SW480 colon carcinoma cells stably expressing the Sp5-Luc reporter); experiment: Wnt pathway activity screening assay (Sp5-Luc reporter gene assay); settings: Homo sapiens, SW480, Table 4; SW480 cells stably expressing Sp5-Luc reporter, 10-point dose-response from 10 μM, 36 to 48 hours
CLK3 kinase = CLK3 kinase (Homo sapiens, UniProt P49761); experiment: CLK3 kinase activity assay (Z-lyte FRET); assay type: biochemical; settings: Z-lyte Ser/Thr 18 peptide, 156 μM ATP, 1 h at room temperature;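 further: kinase activity read as coumarin/fluorescein emission ratio by FRET, unphosphorylated peptide as 0% and phosphorylated peptide as 100% control, values from non-linear regression of dose-response curves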
[2] = system: primary human mesenchymal stem cells (hMSCs); experiment: Chondrogenesis screening using primary human mesenchymal stem cells; assay type: cell-based; settings: Homo sapiens, Mesenchymal stem cells, hMSC chondrogenesis; for Emax: maximum activity relative to TGF-β3 (10 ng/mL) positive control, read-out: Max. Activity as % TGF-β3 activity; for EC50: concentration required to induce 50% levels of chondrogenesis with TGF-β3 as positive control, read-out: Conc (nM) of 50% TGF-β3 activity
How it was run: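 Derived values are EC50 for 50% chondrogenesis, maximal activity and the dose giving it. These come from nodule area in passage 3–6 primary hMSCs, expressed as fold change over the mean of 3 same-plate DMSO wells, 2–3 replicates per concentration. TGF-β3 served as positive control.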

CLK2 kinase = CLK2 kinase (Homo sapiens, UniProt P49760); experiment: CLK2 kinase activity assay (Z-lyte FRET); assay type: biochemical; settings: Z-lyte Ser/Thr 6 peptide, 60 μM ATP, 1 h at room temperature;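 further: FRET read-out as coumarin to fluorescein emission ratio, unphosphorylated peptide as 0% and phosphorylated peptide as 100% controls, duplicate reactions, non-linear regression fit of dose-response curves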
Chain of CLK2 kinase (P49760 whole entry): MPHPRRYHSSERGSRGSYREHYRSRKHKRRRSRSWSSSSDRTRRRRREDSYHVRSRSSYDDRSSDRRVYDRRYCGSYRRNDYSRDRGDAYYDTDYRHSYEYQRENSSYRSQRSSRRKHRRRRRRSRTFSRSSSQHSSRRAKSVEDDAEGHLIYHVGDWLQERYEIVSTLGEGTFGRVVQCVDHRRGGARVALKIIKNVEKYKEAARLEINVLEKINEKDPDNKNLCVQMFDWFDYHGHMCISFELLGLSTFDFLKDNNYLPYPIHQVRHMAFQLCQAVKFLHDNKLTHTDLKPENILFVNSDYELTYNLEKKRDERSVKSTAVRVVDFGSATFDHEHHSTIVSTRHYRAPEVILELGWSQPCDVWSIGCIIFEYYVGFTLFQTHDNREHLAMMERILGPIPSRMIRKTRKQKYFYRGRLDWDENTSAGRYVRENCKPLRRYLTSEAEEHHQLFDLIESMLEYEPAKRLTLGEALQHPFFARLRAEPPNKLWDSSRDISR

Chain of CLK3 kinase (P49761 whole entry): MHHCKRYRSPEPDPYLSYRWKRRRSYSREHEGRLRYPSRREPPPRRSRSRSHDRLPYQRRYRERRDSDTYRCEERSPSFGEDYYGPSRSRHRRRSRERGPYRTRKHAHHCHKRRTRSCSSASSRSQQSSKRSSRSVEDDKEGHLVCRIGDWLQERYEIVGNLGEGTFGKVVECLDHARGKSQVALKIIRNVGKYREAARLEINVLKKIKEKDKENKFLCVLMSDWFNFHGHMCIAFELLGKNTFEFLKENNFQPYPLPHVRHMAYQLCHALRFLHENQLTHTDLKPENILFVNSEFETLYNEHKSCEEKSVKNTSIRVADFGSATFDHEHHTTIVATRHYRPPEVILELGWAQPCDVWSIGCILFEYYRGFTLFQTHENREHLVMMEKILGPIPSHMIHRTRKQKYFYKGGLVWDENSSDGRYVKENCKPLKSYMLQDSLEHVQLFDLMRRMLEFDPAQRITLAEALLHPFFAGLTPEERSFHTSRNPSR

Row | SMILES | EC50 [1] [nM] | EC50 (CLK3 kinase) [nM] | Emax [2] [%] | EC50 (CLK2 kinase) [nM] | EC50 [2] [nM]
1 | Fc1cccc(-c2nccc3[nH]c(-c4n[nH]c5ccc(-c6cccnc6)nc45)cc23)c1 [compound 301] | 1350 | 105 | 44.8 | 8 | 
2 | CCC(=O)Nc1cncc(-c2ccc3[nH]nc(-c4cc5c(-c6cccc(F)c6)nccc5[nH]4)c3c2)c1 [compound 302] | 45 | 46 | 16.2 | 6 | 
3 | CCC(=O)Nc1cncc(-c2ccc3[nH]nc(-c4cc5c(-c6cccc(F)c6)cncc5[nH]4)c3c2)c1 [compound 303] | 45 | 85 | 33.5 | 15 | 
4 | CCC(=O)Nc1cncc(-c2ccc3[nH]nc(-c4cc5c(-c6cccc(F)c6)ccnc5[nH]4)c3c2)c1 [compound 304] | 13.2 | 21 | 167 | 16 | 
5 | CCC(=O)Nc1cncc(-c2cnc3[nH]nc(-c4cc5c(-c6cccc(F)c6)cncc5[nH]4)c3c2)c1 [compound 305] | 246 | 33 | 113 | 3 | 
6 | CCC(=O)Nc1cncc(-c2cc3c(-c4cc5c(-c6cccc(F)c6)nccc5[nH]4)n[nH]c3cn2)c1 [compound 306] | 305 | 138 | 50.8 | 8 | 30
7 | CC(C)C(=O)Nc1cncc(-c2cc3c(-c4cc5c(-c6cccc(F)c6)cncc5[nH]4)n[nH]c3cn2)c1 [compound 307] | 1730 | 307 | 42.2 | 13 | 
8 | CN(C)Cc1cncc(-c2ccc3[nH]nc(-c4cc5c(-c6cccc(F)c6)nccc5[nH]4)c3c2)c1 [compound 308] | 2940 | 83 | 42 | 7 | 
9 | CN(C)Cc1cncc(-c2ccc3[nH]nc(-c4cc5c(-c6cccc(F)c6)cncc5[nH]4)c3c2)c1 [compound 309] | 1280 | 37 | 193 | 3 | 
10 | CN(C)Cc1cncc(-c2cnc3[nH]nc(-c4cc5c(-c6cccc(F)c6)cncc5[nH]4)c3c2)c1 [compound 310] | 1180 | 74 | 110 | 4 | 10
11 | CN(C)Cc1cncc(-c2cc3c(-c4cc5c(-c6cccc(F)c6)nccc5[nH]4)n[nH]c3cn2)c1 [compound 311] | 1850 | 218 | 60 | 3 | 30
12 | Fc1cccc(-c2nccc3[nH]c(-c4n[nH]c5ccc(-c6cncc(CN7CCCCC7)c6)nc45)cc23)c1 [compound 312] | 3750 | 252 | 48 | 4 | 
13 | Fc1cccc(-c2cncc3[nH]c(-c4n[nH]c5ncc(-c6cncc(CN7CCCCC7)c6)cc45)cc23)c1 [compound 313] | 3120 | 295 | 108 | 18 | 
14 | O=C(Nc1cncc(-c2cc3c(-c4cc5c(-c6ccc(F)cc6)nccc5[nH]4)n[nH]c3cn2)c1)C1CC1 [compound 314] | 844 | 202 | 96.2 | 10 | 30
15 | Fc1ccc(-c2nccc3[nH]c(-c4n[nH]c5ccc(-c6cncc(CN7CCCC7)c6)cc45)cc23)cc1 [compound 315] | 3620 | 139 | 98.5 | 3 | 
16 | Fc1ccc(-c2nccc3[nH]c(-c4n[nH]c5cnc(-c6cncc(CN7CCC(F)(F)C7)c6)cc45)cc23)cc1 [compound 316] | 291 | 417 | 61.2 | 7 | 10
17 | Fc1ccc(-c2cncc3[nH]c(-c4n[nH]c5cnc(-c6cncc(CN7CCC(F)(F)C7)c6)cc45)cc23)cc1 [compound 317] | 3260 | 9840 | 78.4 | 16 | 100
18 | Fc1ccc(-c2cncc3[nH]c(-c4n[nH]c5ncc(-c6cncnc6)cc45)cc23)cc1 [compound 319] | 594 | 817 | 23.8 | 6 | 
19 | Nc1cncc(-c2ccc3[nH]nc(-c4cc5c(-c6ccccc6F)ccnc5[nH]4)c3c2)c1 [compound 320] | 131 | 33 | 23.5 | 9 | 
20 | Nc1cncc(-c2cnc3[nH]nc(-c4cc5c(-c6ccccc6F)nccc5[nH]4)c3c2)c1 [compound 321] | 197 | 67 | 86 | 7 | 30

Row | SMILES | EC50 [1] [nM] | EC50 (CLK3 kinase) [nM] | Emax [2] [%] | EC50 (CLK2 kinase) [nM] | EC50 [2] [nM]
21 | Nc1cncc(-c2cnc3[nH]nc(-c4cc5c(-c6ccccc6F)ccnc5[nH]4)c3c2)c1 [compound 322] | 745 | 66 | 27.6 | 6 | 
22 | Nc1cncc(-c2cc3c(-c4cc5c(-c6ccccc6F)nccc5[nH]4)n[nH]c3cn2)c1 [compound 323] | 224 | 59 | 117 | 2 | 10
23 | Nc1cncc(-c2cc3c(-c4cc5c(-c6ccccc6F)cncc5[nH]4)n[nH]c3cn2)c1 [compound 324] | 1630 | 205 | 15.5 | 6 | 
24 | CC(C)CC(=O)Nc1cncc(-c2ccc3[nH]nc(-c4cc5c(-c6ccccc6F)nccc5[nH]4)c3n2)c1 [compound 326] | 605 | 144 | 36.3 | 10 | 
25 | CC(C)(C)CC(=O)Nc1cncc(-c2cc3c(-c4cc5c(-c6ccccc6F)nccc5[nH]4)n[nH]c3cn2)c1 [compound 327] | 1030 | 414 | 54.3 | 10 | 30
26 | O=C(Nc1cncc(-c2cnc3[nH]nc(-c4cc5c(-c6ccccc6F)nccc5[nH]4)c3c2)c1)C1CC1 [compound 328] | 321 | 47 | 78.1 | 6 | 30
27 | O=C(Nc1cncc(-c2cnc3[nH]nc(-c4cc5c(-c6ccccc6F)cncc5[nH]4)c3c2)c1)C1CC1 [compound 329] | 390 | 42 | 52.1 | 8 | 
28 | O=C(Nc1cncc(-c2ccc3[nH]nc(-c4cc5c(-c6ccccc6F)nccc5[nH]4)c3n2)c1)C1CC1 [compound 330] | 642 | 109 | 24.8 | 12 | 
29 | O=C(Nc1cncc(-c2ccc3[nH]nc(-c4cc5c(-c6ccccc6F)nccc5[nH]4)c3c2)c1)C1CCCC1 [compound 331] | 418 | 158 | 70.8 | 15 | 
30 | CC(C)Nc1cncc(-c2cnc3[nH]nc(-c4cc5c(-c6ccccc6F)nccc5[nH]4)c3c2)c1 [compound 332] | 435 | 196 | 75.8 | 6 | 10
31 | CCNCc1cncc(-c2cnc3[nH]nc(-c4cc5c(-c6ccccc6F)cncc5[nH]4)c3c2)c1 [compound 334] | 2300 | 89 | 37.3 | 2 | 
32 | CCNCc1cncc(-c2cc3c(-c4cc5c(-c6ccccc6F)ccnc5[nH]4)n[nH]c3cn2)c1 [compound 335] | > 10000 | 2310 | 270 | 19 | 30
33 | CN(C)Cc1cncc(-c2cnc3[nH]nc(-c4cc5c(-c6ccccc6F)cncc5[nH]4)c3c2)c1 [compound 336] | 2490 | 107 | 60.9 | 3 | 
34 | CN(C)Cc1cncc(-c2ccc3[nH]nc(-c4cc5c(-c6ccccc6F)cncc5[nH]4)c3n2)c1 [compound 337] | 1370 | 109 | 50.6 | 2 | 30
35 | Fc1ccccc1-c1nccc2[nH]c(-c3n[nH]c4cnc(-c5cncc(CN6CCCC6)c5)cc34)cc12 [compound 338] | 1980 | 222 | 69.4 | 5 | 10
36 | Fc1ccccc1-c1cncc2[nH]c(-c3n[nH]c4ncc(-c5cn[nH]c5)cc34)cc12 [compound 339] | 375 | 99 | 51.1 | 7 | 
37 | Fc1ccccc1-c1nccc2[nH]c(-c3n[nH]c4cnc(-c5cn[nH]c5)cc34)cc12 [compound 340] | 30.5 | 785 | 89.2 | 10 | 10
38 | c1cncc(-c2ccc3[nH]nc(-c4cc5c(-c6cccnc6)ccnc5[nH]4)c3c2)c1 [compound 342] | > 10000 | 90 | 16.7 | 4 | 
39 | c1cncc(-c2cc3c(-c4cc5c(-c6cccnc6)cncc5[nH]4)n[nH]c3cn2)c1 [compound 343] | 1340 | 468 | 76.4 | 3 | 100
40 | c1cncc(-c2ccc3[nH]nc(-c4cc5c(-c6cccnc6)ccnc5[nH]4)c3n2)c1 [compound 344] | > 10000 | 9840 | 59.2 | 3 | 100
